Laboratory results reported in US7785807B2, “Voltage-gated, pH-sensitive anion channel and its novel splice variant involved in taste sensation” (Monell Chemical Senses Center, priority 2004, dated 2010).
Entries after “also recorded” stand apart in the source; their conditions may differ.

Experiments:
Type in all cases: cell-based
human ClC-4 = target: T1, human ClC-4 (Homo sapiens, UniProt P51793); experiment: Two-electrode voltage-clamp recording of human ClC-4 expressed in Xenopus oocytes, chloride channel inhibitor effect
T1 construct: one clone was isolated, which contained the entire coding region; expressed in transfected cells; host or cells: Xenopus laevis oocytes injected with in vitro transcribed cRNA
T1 sequence (P51793 1-760): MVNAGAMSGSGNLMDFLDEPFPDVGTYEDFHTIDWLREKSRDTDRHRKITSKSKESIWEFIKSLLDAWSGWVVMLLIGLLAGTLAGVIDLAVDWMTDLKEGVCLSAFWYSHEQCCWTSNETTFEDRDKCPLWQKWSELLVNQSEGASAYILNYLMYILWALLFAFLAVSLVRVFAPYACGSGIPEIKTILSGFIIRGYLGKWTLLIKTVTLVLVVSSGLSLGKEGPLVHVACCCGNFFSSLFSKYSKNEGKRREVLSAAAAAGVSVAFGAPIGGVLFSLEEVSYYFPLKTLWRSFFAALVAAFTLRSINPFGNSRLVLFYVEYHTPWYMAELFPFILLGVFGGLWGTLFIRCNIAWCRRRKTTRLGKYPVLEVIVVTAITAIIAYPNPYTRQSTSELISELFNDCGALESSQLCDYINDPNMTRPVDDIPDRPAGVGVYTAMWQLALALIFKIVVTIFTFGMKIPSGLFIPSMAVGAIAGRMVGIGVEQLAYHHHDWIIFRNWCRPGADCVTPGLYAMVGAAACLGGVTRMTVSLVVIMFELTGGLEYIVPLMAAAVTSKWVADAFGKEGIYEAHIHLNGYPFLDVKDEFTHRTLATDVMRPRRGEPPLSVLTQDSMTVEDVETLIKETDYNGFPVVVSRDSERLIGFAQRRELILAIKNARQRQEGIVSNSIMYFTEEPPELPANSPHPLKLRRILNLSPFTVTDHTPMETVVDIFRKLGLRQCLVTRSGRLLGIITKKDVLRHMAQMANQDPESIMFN
Procedure: (§1) ClC-4 and ClC-4A cDNAs were subcloned into the expression vector pCR Blunt II TOPO. Capped sense cRNA was synthesized from the linearized expression constructs by T7 RNA polymerase with nMessage mMachine in vitro transcription kit and tailed with polyA tailing kit (Ambion). The synthesized cRNA products were phenol extracted, ethyl alcohol precipitated, and then dissolved in nuclease-free water at about 0.5 ng/nl for injection. Dumont stage V or VI oocytes were obtained from adult female laboratory bred Xenopus laevis, and their follicles were removed by collagenase digestion. […] Membrane currents were recorded using the two-electrode voltage-clamp technique in ND96 solution (96 mM NaCl, 2 mM KCl, 1.8 mM CaCl2, 1 mM MgCl2, 5 mM Na-HEPES, pH 7.4). […]
(§2) Recording and current-passing micropipettes with tip resistance <5 MΩ when filled with 3 M KCl were pulled from glass capillaries (A-M Systems Inc., Carlsburg, Wash., USA) using a horizontal puller (Suffer P-80/PC). Currents were recorded with a GeneClamp 500 amplifier, digitized with a Digidata 1200 A/D-D/A system, and stored on a computer running pCLAMP 6 software (all from Axon Instruments, Foster City, Calif., USA). […]

mouse ClC-4 = target: T2, mouse ClC-4 (Mus musculus, UniProt Q61418); experiment: Two-electrode voltage-clamp recording of mouse ClC-4 expressed in Xenopus oocytes, chloride channel inhibitor effect
T2 construct: a pair of PCR primers was designed to encompass the entire coding region; expressed in transfected cells; host or cells: Xenopus laevis oocytes injected with in vitro transcribed cRNA
T2 sequence (Q61418 1-747): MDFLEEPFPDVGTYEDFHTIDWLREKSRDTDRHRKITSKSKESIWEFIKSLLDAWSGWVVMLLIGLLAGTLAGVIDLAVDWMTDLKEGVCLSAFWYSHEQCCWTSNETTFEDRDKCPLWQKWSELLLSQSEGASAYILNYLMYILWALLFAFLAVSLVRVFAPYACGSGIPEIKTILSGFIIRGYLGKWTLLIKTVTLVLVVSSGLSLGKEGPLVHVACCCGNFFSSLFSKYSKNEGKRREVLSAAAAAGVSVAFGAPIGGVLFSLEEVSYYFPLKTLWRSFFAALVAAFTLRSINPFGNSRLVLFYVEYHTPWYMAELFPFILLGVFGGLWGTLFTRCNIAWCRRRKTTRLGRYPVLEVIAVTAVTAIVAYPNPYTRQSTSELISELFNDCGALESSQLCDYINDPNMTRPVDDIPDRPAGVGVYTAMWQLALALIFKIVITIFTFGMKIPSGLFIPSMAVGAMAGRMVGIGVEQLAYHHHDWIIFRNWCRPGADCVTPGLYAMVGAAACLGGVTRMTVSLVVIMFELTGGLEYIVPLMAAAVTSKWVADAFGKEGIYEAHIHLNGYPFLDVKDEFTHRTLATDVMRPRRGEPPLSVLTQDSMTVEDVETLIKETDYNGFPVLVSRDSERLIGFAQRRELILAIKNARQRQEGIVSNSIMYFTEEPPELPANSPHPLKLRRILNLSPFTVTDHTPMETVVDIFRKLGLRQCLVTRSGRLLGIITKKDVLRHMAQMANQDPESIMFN
Procedure: as §1, §2

ClC-4A = target: T3, ClC-4A (Mus musculus, UniProt Q61418); experiment: Two-electrode voltage-clamp recording of ClC-4A expressed in Xenopus oocytes, chloride channel inhibitor effect
T3 construct: expressed in transfected cells; host or cells: Xenopus laevis oocytes injected with in vitro transcribed cRNA
T3 sequence (Q61418 61-747): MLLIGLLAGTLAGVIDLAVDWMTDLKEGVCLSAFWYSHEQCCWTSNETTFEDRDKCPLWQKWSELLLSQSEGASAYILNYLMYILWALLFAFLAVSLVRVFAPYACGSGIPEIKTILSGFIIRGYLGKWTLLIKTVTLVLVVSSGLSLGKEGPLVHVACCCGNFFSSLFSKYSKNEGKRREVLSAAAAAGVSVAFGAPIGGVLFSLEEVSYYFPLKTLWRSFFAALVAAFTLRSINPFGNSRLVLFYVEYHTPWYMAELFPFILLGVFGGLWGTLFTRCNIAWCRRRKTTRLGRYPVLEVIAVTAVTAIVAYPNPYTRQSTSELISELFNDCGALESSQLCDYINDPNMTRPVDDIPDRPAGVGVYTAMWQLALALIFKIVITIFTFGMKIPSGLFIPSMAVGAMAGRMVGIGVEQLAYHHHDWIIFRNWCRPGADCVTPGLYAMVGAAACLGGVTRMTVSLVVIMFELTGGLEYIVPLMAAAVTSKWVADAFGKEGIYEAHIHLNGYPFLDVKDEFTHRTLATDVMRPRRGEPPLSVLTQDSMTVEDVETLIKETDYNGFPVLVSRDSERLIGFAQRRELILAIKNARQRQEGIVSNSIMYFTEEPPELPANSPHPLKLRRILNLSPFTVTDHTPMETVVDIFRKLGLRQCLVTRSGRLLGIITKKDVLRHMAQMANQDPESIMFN
Procedure: as §1, §2

[1] = 0.3 mM NFA, pH 7.4, Xenopus oocytes
[2] = 0.1 mM NPPB, optimal pH, Xenopus oocytes

| SMILES | inhibition on ion channel conductance (human ClC-4; [1]) | inhibition on ion channel conductance (mouse ClC-4; [1]) | inhibition on ion channel conductance (ClC-4A; 0.3 mM NFA, pH 5.5, Xenopus oocytes) | inhibition on ion channel conductance (human ClC-4; [2]) | inhibition on ion channel conductance (mouse ClC-4; [2]) | inhibition on ion channel conductance (ClC-4A; [2]) |
| --- | --- | --- | --- | --- | --- | --- |
| O=C(O)c1cccnc1Nc1cccc(C(F)(F)F)c1 [NFA, niflumic acid] | only a slight inhibitory effect | only a slight inhibitory effect | significantly inhibited | – | – | – |
| O=C(O)c1cc([N+](=O)[O-])ccc1NCCCc1ccccc1 [NPPB, 5-nitro-2-(3-phenylpropylamino)-benzoic acid] | – | – | – | no apparent effect | no apparent effect | slightly inhibit; also recorded: inhibited |
